Like-named read-outs stand apart in the source and are kept apart here.
Experiments:
[1] = test system: 786-O cells; assay: VEGF ELISA Assay; format: cell-based; settings: Homo sapiens, 786-0
Experimental: Each concentration was plated in duplicate. About 20 hours later, medium was removed by suction and each well was supplied with 180 μL of growth medium. About 20 μl freshly-made 10× compound stocks were added to each well. […] The EC50 was calculated by GraphPad Prism using the dose-response-inhibition (four parameter) equation. The cell-seeded plate was then subjected to CellTiter-Glo luminescence cell viability assay (Promega) by adding 50 μL of Celltiter Glo reagent into each well and shaking the plate for 8 minutes at 550 rpm (Thermomixer R, Eppendorf) then the luminescence signal immediately read in a plate reader (3 second delay, 0.5 second/well integration time, Synergy 2 multi Detection Microplate reader).

[2] = target: T1, HIF-2α HIS TAG-PASB Domain (Homo sapiens, UniProt Q99814); assay: HIF-2α Scintillation Proximity Assay (SPA); format: binding
T1 construct: 100 nM HIF-2α HIS TAG-PASB Domain
T1 sequence (Q99814 240-350 limits assumed): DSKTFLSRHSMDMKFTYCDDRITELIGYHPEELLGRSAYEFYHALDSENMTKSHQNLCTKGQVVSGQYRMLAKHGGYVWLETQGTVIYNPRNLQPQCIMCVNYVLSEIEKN
Procedure, shortened: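 IC50 values rest on percent inhibition, where the sample signal is scaled between high and low controls. Wells contain about 100 μL: compound dispensed as 2 μL of DMSO solution, 88 μL protein-probe mix and 10 μL of beads.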

[3] = test system: 786-O-Hif-Luc cells; assay: Luciferase Assay (HIF responsive elements reporter)
Experimental: A pool of infected cells were then selected against 2 μg/mL of puromycin (P8833, Sigma) for 10 days followed by limited dilution to select single clones. […] Each concentration was tested in triplicate. After about 24 hours, luciferase activity was determined using ONE-Glo Luciferase Assay Reagent (E6110, Promega) following the manufacturer's recommended procedure. EC50 were calculated using Dotmatics software.

[4] = read-out: Scintillation Proximity Assay IC50
[5] = read-out: Mean Luciferase EC50 (nM), 786-O-Hif-Luc cells
[6] = Scintillation Proximity Assay IC50 (nM)
[7] = read-out: Mean Luciferase EC50 (nM)

Row | EC50 [1] [nM] | IC50 [2, 4] [nM] | EC50 [3, 5] [nM] | IC50 [2, 6] [nM] | Compound | EC50 [3, 7] [nM]
1 | < 50 | – | < 50 | < 50 | N#Cc1cc(F)cc(Oc2ccc(S(=O)(=O)CF)c3c2CC(F)(F)[C@H]3O)c1 [Compound 63] | –
2 | < 50 | < 50 | < 50 | – | O=S(=O)(c1ccc(Oc2ccc(F)c(F)c2)c2c1[C@H](O)C(F)(F)C2)C(F)(F)F [Compound 233] | –
3 | 250 to 1000 | 50 to 249 | – | – | O=S(=O)(c1ccc(Oc2cc(F)cc(Cl)c2)c(Br)c1CO)C(F)(F)F [Compound 102] | –
4 | 50 to 249 | < 50 | 50 to 249 | – | COC[C@@H](C)Oc1ccc(S(=O)(=O)C(F)(F)F)c2c1CC(F)(F)[C@H]2O [Compound 659] | –
5 | < 50 | < 50 | < 50 | – | N#Cc1cccc(Oc2ccc(S(=O)(=O)C(F)F)c3c2CC(F)(F)[C@H]3O)c1 [Compound 236] | –
6 | 50 to 249 | < 50 | < 50 | – | O=S(=O)(CF)c1ccc(O[C@H]2C[C@H](F)C2)c2c1[C@H](O)[C@H](F)[C@@H]2F [Compound 743] | –
7 | < 50 | < 50 | < 50 | – | N#Cc1cc(Oc2ccc(S(=O)(=O)C(F)(F)F)c3c2CC(F)(F)[C@H]3O)ccc1F [Compound 228] | –
8 | < 50 | – | < 50 | < 50 | N#Cc1cc(F)cc(Oc2ccc(S(=O)(=O)C(F)(F)F)c3c2CC(F)(F)[C@H]3O)c1 [Compound 185] | –
9 | < 50 | < 50 | < 50 | – | N#CC1(COc2ccc(S(=O)(=O)C(F)(F)F)c3c2CC(F)(F)[C@H]3O)CC1 [Compound 658] | –
10 | 50 to 249 | < 50 | < 50 | – | CCCCOc1ccc(S(=O)(=O)C(F)(F)F)c2c1CC(F)(F)[C@H]2O [Compound 710] | –
11 | < 50 | – | < 50 | < 50 | O=S(=O)(c1ccc(Oc2cc(F)cc(Cl)c2)c2c1[C@H](O)C(F)(F)C2)C(F)F [Compound 158] | –
12 | 50 to 249 | < 50 | < 50 | – | O=S(=O)(c1ccc(OC2CCCC2)c2c1C(O)C(F)(F)C2)C(F)(F)F (stereo not shown) [Compound 605] | –
13 | < 50 | < 50 | < 50 | – | O=S(=O)(c1ccc(OC2CCC2)c2c1[C@H](O)C(F)(F)C2)C(F)(F)F [Compound 657] | –
14 | < 50 | < 50 | < 50 | – | CC(C)Oc1ccc(S(=O)(=O)C(F)(F)F)c2c1CC(F)(F)[C@H]2O [Compound 654] | –
15 | > 1000 | 50 to 249 | – | – | N#Cc1cc(F)cc(Oc2ccc(S(=N)(=O)CF)c3c2CC(F)(F)[C@H]3O)c1 (stereo partly shown) [Compound 274] | –
16 | > 1000 | < 50 | – | – | O=S(=O)(c1ccc(Oc2cc(F)cc(Cl)c2)c(Br)c1Cl)C(F)(F)F [Compound 179] | –
17 | 250 to 1000 | – | – | – | O=S(=O)(c1ccc(Oc2cc(F)cc(Cl)c2)c2c1[C@H](O)CC2)C(F)F [Compound 1] | –
18 | 50 to 249 | – | – | – | N#Cc1ccc(Oc2cc(F)cc(F)c2)c2c1[C@H](O)C(F)(F)C2 [Compound 67] | –
19 | 50 to 249 | – | – | – | CS(=O)(=O)c1ccc(Oc2cc(Cl)cc(C#N)c2)c2c1[C@H](O)C(F)(F)C2 [Compound 234] | < 50
20 | 50 to 249 | – | – | – | O=S(=O)(c1ccc(Oc2cc(F)cc(Cl)c2)c2c1C(O)CC2)C(F)F (stereo not shown) [Compound 17] | –
21 | – | < 50 | 50 to 249 | – | O=S(=O)(c1ccc(Oc2cc(F)cc(Cl)c2)c2c1[C@H](O)CC2)C(F)(F)F [Compound 56] | –
22 | – | 250 to 1000 | > 1000 | – | O=S(=O)(c1ccc(Oc2ccc(F)c(Cl)c2)c2c1C(O)CC2)C(F)(F)F (stereo not shown) [Compound 218] | –
23 | – | 50 to 249 | 250 to 1000 | – | Cc1c(Oc2cc(F)cc(C#N)c2)ccc(S(=O)(=O)C(F)(F)F)c1C=O [Compound 145] | –
24 | – | > 1000 | > 1000 | – | N[C@H]1C[C@@H](Oc2ccc(S(=O)(=O)C(F)(F)F)c3c2CC(F)(F)[C@H]3O)C1 [Compound 724] | –
25 | – | > 1000 | > 1000 | – | N#Cc1cncc(-c2ccc(S(=O)(=O)C(F)(F)F)c3c2CC(F)(F)[C@H]3O)c1 [Compound 570] | –
26 | – | 250 to 1000 | > 1000 | – | CS(=O)(=O)c1ccc(O[C@H]2C[C@@H](O)C2)c2c1[C@H](O)C(F)(F)[C@@H]2F [Compound 735] | –
27 | – | > 1000 | > 1000 | – | O[C@H]1c2c(C(F)(F)F)ccc(OC(F)F)c2CC1(F)F [Compound 670] | –
28 | – | 50 to 249 | > 1000 | – | O=S(=O)(c1ccc(OCCO)c2c1C(O)C(F)(F)C2)C(F)(F)F (stereo not shown) [Compound 614] | –
29 | – | 250 to 1000 | 250 to 1000 | – | CCOc1ccc(S(=O)(=O)C(F)F)c2c1CC(F)(F)[C@H]2O [Compound 678] | –
30 | – | < 50 | < 50 | – | CC(Oc1ccc(S(=O)(=O)C(F)(F)F)c2c1CC(F)(F)C2O)C1CC1 (stereo not shown) [Compound 746] | –

The next lines start with the molecule.

Row | Compound | EC50 [1] [nM] | IC50 [2, 4] [nM] | EC50 [3, 5] [nM] | IC50 [2, 6] [nM] | EC50 [3, 7] [nM]
31 | CS(=O)(=O)c1ccc(OC2CC(F)(F)C2)c2c1[C@H](O)C(F)(F)[C@@H]2F [Compound 574, (1S,3R)-4-(3,3-difluorocyclobutoxy)-2,2,3-trifluoro-7-(methylsulfonyl)-2,3-dihydro-1H-inden-1-ol] | 50 to 249 | < 50 | 50 to 249 | – | –
32 | CS(=O)(=O)c1ccc(Oc2cc(F)cc(C#N)c2)c2c1[C@H](O)C(F)(F)[C@@H]2F [Compound 292, 3-fluoro-5-[(1S,3R)-2,2,3-trifluoro-1-hydroxy-7-methylsulfonyl-indan-4-yl]oxy-benzonitrile] | < 50 | < 50 | < 50 | – | –
33 | CC1(O)c2c(ccc(Oc3cc(F)cc(F)c3)c2C#N)S(=O)(=O)C1(F)F (stereo not shown) [Compound 446] | < 50 | < 50 | < 50 | – | –
34 | N#Cc1cc(F)cc(Oc2ccc3c(c2Cl)[C@@H](O)C(F)(F)S3(=O)=O)c1 [Compound 431] | 50 to 249 | < 50 | < 50 | – | –
35 | O=S(=O)(CF)c1ccc(OC2CC(F)(F)C2)c2c1[C@H](O)C(F)(F)[C@@H]2F [Compound 576, (1S,3R)-4-(3,3-difluorocyclobutoxy)-2,2,3-trifluoro-7-((fluoromethyl)sulfonyl)-2,3-dihydro-1H-inden-1-ol] | 50 to 249 | < 50 | < 50 | – | –
36 | Cc1c(S(=O)(=O)C(F)F)ccc(Oc2cc(F)cc(F)c2)c1C#N [Compound 34] | 250 to 1000 | < 50 | 250 to 1000 | – | –
37 | CS(=O)(=O)c1ccc(Oc2cncc(C#N)c2)c2c1[C@H](O)C(F)(F)[C@@H]2F [Compound 342] | 50 to 249 | < 50 | 50 to 249 | – | –
38 | C[C@@]1(O)c2c(ccc(Oc3cc(F)cc(C#N)c3)c2C#N)S(=O)(=O)C1(F)F [Compound 458] | < 50 | – | < 50 | – | –
39 | N#Cc1c(S(=O)(=O)C(F)(F)F)ccc(Oc2cc(F)cc(Cl)c2)c1Br [Compound 98] | > 1000 | < 50 | > 1000 | – | –
40 | CC1(O)c2c(ccc(Oc3cc(F)cc(C#N)c3)c2C#N)S(=O)(=O)C1(F)F (stereo not shown) [Compound 451] | < 50 | – | < 50 | – | –
41 | O[C@H]1c2c(C(F)(F)F)ncc(OC3CC(F)C3)c2C[C@H]1F (stereo partly shown) [Compound 478] | < 50 | – | < 50 | – | –
42 | N#Cc1cc(F)cc(Oc2ccc(S(=O)(=O)C(F)F)c3c2CC[C@H]3O)c1 [Compound 155] | 50 to 249 | – | – | – | 50 to 249
43 | N#Cc1cccc(Oc2ccc(S(=O)(=O)C(F)(F)F)c(C#N)c2Br)c1 [Compound 99] | 250 to 1000 | – | 250 to 1000 | – | –
44 | O=S(=O)(c1ccc(Oc2cc(F)cc(Cl)c2)c(Cl)c1CO)C(F)F [Compound 41] | 250 to 1000 | – | – | – | 250 to 1000
45 | N#Cc1cc(S(=O)(=O)C(F)F)ccc1Oc1cc(F)cc(Cl)c1 [Compound 133] | > 1000 | 250 to 1000 | – | – | –
46 | O=S1(=O)c2ccc(Oc3cc(F)cc(Cl)c3)c(Br)c2C(O)C1(F)F (stereo not shown) [Compound 355] | 50 to 249 | – | – | < 50 | –
47 | O=S(=O)(c1ccc(Oc2cc(F)cc(F)c2)c2c1CCC2)C(F)F [Compound 20] | – | > 1000 | > 1000 | – | –
48 | O=S(=O)(c1ccc(Oc2cc(F)cc(Cl)c2)c(C(F)F)c1)C(F)(F)F [Compound 124] | 250 to 1000 | – | – | – | 250 to 1000
49 | COC(=O)/C=C/c1c(S(=O)(=O)C(F)(F)F)ccc(Oc2cc(F)cc(C#N)c2)c1C [Compound 147] | – | 50 to 249 | > 1000 | – | –
50 | N#Cc1c(S(=O)(=O)C(F)(F)F)ccc(Oc2cc(F)cc(Cl)c2)c1Cl [Compound 111] | – | < 50 | > 1000 | – | –
51 | N#Cc1cc(Oc2ccc3c(c2C(F)F)[C@@H](O)C(F)(F)S3(=O)=O)ccc1F [Compound 437] | – | 50 to 249 | 250 to 1000 | – | –
52 | COc1cc(F)cc(Oc2ccc(S(=O)(=O)C(F)F)c3c2CC[C@H]3O)c1 [Compound 6] | – | < 50 | 50 to 249 | – | –
53 | N#Cc1cc(F)cc(Oc2ccc(S(N)(=O)=O)c3c2C[C@@H](F)[C@H]3O)c1 [Compound 334] | – | 50 to 249 | 50 to 249 | – | –
54 | N#Cc1cc(F)cc(Oc2ccc3c(c2C#N)[C@@H](O)CS3(=O)=O)c1 [Compound 416] | – | > 1000 | 250 to 1000 | – | –
55 | CS(=O)(=O)c1ccc(Oc2cc(F)cc(C#N)c2)c(C(F)F)c1C#N [Compound 94] | – | 50 to 249 | 250 to 1000 | – | –
56 | COc1c(Oc2cc(F)cc(C#N)c2)ccc2c1C(O)C(F)(F)S2(=O)=O (stereo not shown) [Compound 433] | – | 250 to 1000 | > 1000 | – | –

From patent US10278942B2 (PELOTON THERAPEUTICS, INC., priority 2015, dated 2019)
